Laboratory results from ChEMBL document CHEMBL6153141, “Design, Synthesis, and Mechanism Study of Novel BMX Inhibitors Based on the Core of 1,3,5-Triazin-2-Amine for the Treatment of Gastric Carcinoma” (J Med Chem, 2025).
pIC50: −log10 of the molar value. Calls of active or inactive are those of the source. The calls are words filed in the database; no cut-off is given here.

How the values were obtained:
[1] = test system: A549; assay: cells; conditions: Homo sapiens, A549, 72 h
Description: Anticancer activity against human A549 cells assessed as inhibition of cell proliferation incubated for 72 hrs by MTT assay

[2] = test system: HGC-27; assay: Antiproliferative activity against human HGC-27 cells assessed as inhibition of cell viability incubated for 24 to 72 hrs by MTT assay; assay type: functional, cell-based; conditions: dose <= 50.0 µM, time 24-72 hrs
[3] = Toxicity in female BALB/c nude mouse model xenografted with human HGC-27 cells assessed as body weight loss at 30 mg/kg, ip administered for 21 days; assay type: organism-based; conditions: in vivo, 504 h, time 21 day
[4] = test system: MGC-803; assay: Downregulation of BMX protein expression in human MGC-803 cells incubated for 48 hrs by Western blot analysis; assay type: functional, cell-based; conditions: dose 10-20 µM
[5] = test system: HeLa; assay: Anticancer activity against human HeLa cells assessed as inhibition of cell proliferation incubated for 72 hrs by MTT assay; assay type: functional, cell-based
[6] = test system: MDA-MB-231; assay: Anticancer activity against human MDA-MB-231 cells assessed as inhibition of cell proliferation incubated for 72 hrs by MTT assay; assay type: functional, cell-based; conditions: MDA-MB-231, 72 h
[7] = test system: MGC-803; assay: Induction of autophagy in human MGC-803 cells assessed as decrease in p62 protein expression incubated for 48 hrs by Western blot analysis; assay type: functional, cell-based; conditions: dose 10-20 µM
[8] = test system: HGC-27; assay: Cell cycle arrest in human HGC-27 cells assessed as accumulation of cells at G1 phase at 5 to 15 uM incubated for 48 hrs by flow cytometric analysis; assay type: functional, cell-based; conditions: dose 5-15 µM
[9] = test system: MGC-803; assay: Induction of apoptosis in human MGC-803 cells assessed as increase in cleaved caspase 9 level incubated for 48 hrs by Western blot analysis; assay type: functional, cell-based; conditions: dose 10-20 µM
[10] = test system: HGC-27; assay: Induction of apoptosis in human HGC-27 cells assessed as increase in cleaved caspase 9 level incubated for 48 hrs by Western blot analysis; assay type: functional, cell-based; conditions: dose 5-15 µM

In the case of `C=CS(=O)(=O)N1CCC[C@@H](Nc2nc(N)nc(Nc3cccc(Oc4ccccc4)c3)n2)C1`, the pIC50 [1] was 4.53, the Activity [2] was “Dose-dependent-effect” and the Activity [3] was “Non-toxic”. For the same compound, the Activity [4] was “Dose-dependent-effect”, the pIC50 [5] was 5.19 and the pIC50 [6] was 4.71. For the same compound, the Activity [7] was “Dose-dependent-effect”, the Activity [8] was “Active” and the Activity [9] was “Dose-dependent-effect”. The Activity [10] was “Dose-dependent-effect”.
